Assay results taken from PMC6149824, “Design and Synthesis of New Benzothiazole Compounds as Selective hMAO-B Inhibitors” (Molecules : A Journal of Synthetic Chemistry and Natural …, 2017).

Legend:
hMAO-A = biological target: T1, hMAO-A (Homo sapiens, UniProt P21397); experiment: in vitro fluorometric hMAO-A inhibition assay (Amplex Red); type: biochemical; conditions: read-out: MAO A Inhibition %; for inhibition at 1000 µM: 10^−3 M; for inhibition at 100 µM: 10^−4 M
T1 sequence (P21397 1-527): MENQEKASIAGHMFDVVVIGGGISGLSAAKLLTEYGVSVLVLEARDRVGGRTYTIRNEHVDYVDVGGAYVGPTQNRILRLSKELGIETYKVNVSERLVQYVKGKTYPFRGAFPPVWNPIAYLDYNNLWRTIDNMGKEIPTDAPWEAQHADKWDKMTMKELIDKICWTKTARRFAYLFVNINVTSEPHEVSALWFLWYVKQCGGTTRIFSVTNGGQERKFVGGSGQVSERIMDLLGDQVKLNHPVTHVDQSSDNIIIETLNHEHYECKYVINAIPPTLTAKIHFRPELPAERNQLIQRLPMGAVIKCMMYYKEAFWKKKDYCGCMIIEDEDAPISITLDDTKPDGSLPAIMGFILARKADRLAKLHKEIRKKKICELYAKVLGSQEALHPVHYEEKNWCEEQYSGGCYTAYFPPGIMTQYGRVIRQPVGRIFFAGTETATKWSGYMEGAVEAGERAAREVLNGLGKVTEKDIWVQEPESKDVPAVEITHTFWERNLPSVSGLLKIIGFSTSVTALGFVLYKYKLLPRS
Protocol: The in vitro fluorometric enzymatic assay, allowing to sensitively detect monoamine oxidase activity, was applied to investigate hMAO-A and hMAO-B inhibitory potential of compounds 3a–3j. The method was performed in two steps, as previously described. […]
(§1) An enzyme inhibition assay was performed according to our recent study. The inhibitor (20 μL/well) and hMAO-A (100 μL/well) or hMAO-B solution (100 μL/well) was added to the fine black-bottom 96-well microtiter plate and the mixture was incubated at 37 °C for 30 min. After the incubation period, the reaction was started by adding a working solution (100 μL/well) ([…] Amplex Red reagent, 1 U/mL horseradish peroxidase and 1 mM p-tyramine) and all pipetting processes were performed using a Biotek Precision XS robotic system (BioTek Instruments, Winooski, VT, USA).
The production of H2O2 and, subsequently, of resorufin was quantified at 37 °C in a BioTek-Synergy H1 microplate reader based on the fluorescence generated (excitation, 535 nm, emission, 587 nm) over a 15 min period, in which the fluorescence increased linearly. Control experiments were carried out simultaneously by replacing the inhibitor solution with 2% DMSO (20 μL). In order to check the probable inhibitory effect of inhibitors on horseradish peroxidase, a parallel reading was achieved by replacing enzyme solutions with 3% H2O2 solution (20 mM 100 μL/well). In addition, the probable capacity of the inhibitors to modify the fluorescence generated in the reaction mixture due to non-enzymatic inhibition was determined by mixing inhibitor and working solutions.
(§2) The specific fluorescence emission (used to obtain the final results) was calculated after subtraction of the background activity, which was determined from vials containing all components except the hMAO isoforms, which were replaced by phosphate buffer (100 μL/well). Blank, control and all concentrations of inhibitors were analyzed in quadruplicate and inhibition percent was calculated by using following equation: % Inhibition=(FCt2−FCt1)−(FIt2−FIt1)/FCt2−FCt1×100 where FCt2 is the fluorescence of a control well measured at t2 time; FCt1 is the fluorescence of a control well measured at t1 time; FIt2 is the fluorescence of an inhibitor well measured at t2 time; and FIt1 is the fluorescence of an inhibitor well measured at t1 time.
(§3) The IC50 values were calculated from a dose-response curve obtained by plotting the percentage inhibition versus the log concentration with the use of GraphPad PRISM software (version 5.0, GraphPad Software Inc., La Jolla, CA, USA).

hMAO-B = biological target: T2, hMAO-B (Homo sapiens, UniProt P27338); experiment: in vitro fluorometric hMAO-B inhibition assay (Amplex Red); type: biochemical; conditions: for inhibition at 1000 µM: 10^−3 M; for inhibition at 1000 µM / inhibition at 100 µM: read-out: MAO B Inhibition %; for inhibition against hMAO-B (first screening step): 10^−3 and 10^−4 M; for inhibition at 100 µM: 10^−4 M; for IC50: concentrations of 10^−5–10^−9 M, mean ± SD, read-out: MAO B IC50
T2 sequence (P27338 1-520): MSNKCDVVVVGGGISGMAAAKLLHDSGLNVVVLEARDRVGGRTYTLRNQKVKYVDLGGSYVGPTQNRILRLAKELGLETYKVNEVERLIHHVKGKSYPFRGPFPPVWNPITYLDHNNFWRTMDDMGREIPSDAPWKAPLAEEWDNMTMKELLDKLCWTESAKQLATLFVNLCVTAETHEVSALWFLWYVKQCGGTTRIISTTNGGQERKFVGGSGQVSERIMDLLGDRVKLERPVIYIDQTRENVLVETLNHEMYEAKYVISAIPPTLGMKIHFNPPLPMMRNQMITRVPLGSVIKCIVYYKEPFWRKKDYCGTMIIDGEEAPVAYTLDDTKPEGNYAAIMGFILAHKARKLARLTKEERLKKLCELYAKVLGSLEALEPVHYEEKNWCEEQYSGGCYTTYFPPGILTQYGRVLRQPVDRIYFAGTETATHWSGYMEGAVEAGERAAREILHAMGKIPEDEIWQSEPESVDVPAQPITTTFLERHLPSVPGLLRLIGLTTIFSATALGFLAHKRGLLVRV
Protocol: The method was performed in two steps, as previously described.
as §1, with “The inhibitor (20 μL/well) and hMAO-A (100 μL/well) or hMAO-B solution (100 μL/well) was added to the fine black-bottom 96-well microtiter plate and the mixture was incubated at 37 °C for 30 min.” left out
Control experiments were carried out simultaneously by replacing the inhibitor solution with 2% DMSO (20 μL). In order to check the probable inhibitory effect of inhibitors on horseradish peroxidase, a parallel reading was achieved by replacing enzyme solutions with 3% H2O2 solution (20 mM 100 μL/well). In addition, the probable capacity of the inhibitors to modify the fluorescence generated in the reaction mixture due to non-enzymatic inhibition was determined by mixing inhibitor and working solutions.
as §2, §3

SMILES	inhibition at 1000 µM (hMAO-A) [%]	inhibition at 100 µM (hMAO-A) [%]	inhibition at 1000 µM (hMAO-B) [%]	inhibition against hMAO-B (first screening step) (hMAO-B)	inhibition at 100 µM (hMAO-B) [%]	IC50 (hMAO-B) [nM]	melting point [°C]
COc1ccc2sc(SCC(=O)NN=Cc3cccs3)nc2c1 [Compound 3a, 2-((5-Methoxybenzothiazol-2-yl)thio)-N′-(thiophen-2-ylmethylene)acetohydrazide]	25	19	60.4	more than 50%	52.1	15400 ± 398	163.7 to 165.3
COc1ccc2sc(SCC(=O)NN=Cc3sccc3C)nc2c1 [Compound 3b, 2-((5-Methoxybenzo[d]thiazol-2-yl)thio)-N′-((3-methylthiophen-2-yl)methylene)acetohydrazide]	30.1	20.4	30.5		26.9		162.9 to 164.4
COc1ccc2sc(SCC(=O)NN=Cc3ccc(C)s3)nc2c1 [Compound 3c, 2-((5-Methoxybenzothiazol-2-yl)thio)-N′-((5-methylthiophen-2-yl)methylene)acetohydrazide]	14.1	10.8	25.8		18.2		149.6 to 152.3
COc1ccc2sc(SCC(=O)NN=Cc3ccc(Br)s3)nc2c1 [Compound 3d, N′-((5-Bromothiophen-2-yl)methylene)-2-((5-methoxybenzothiazol-2-yl)thio)acetohydrazide]	18.9	12.7	24		17.8		188.3 to 190.4
COc1ccc2sc(SCC(=O)NN=Cc3ccco3)nc2c1 [Compound 3f, N′-(Furan-2-ylmethylene)-2-((5-methoxybenzothiazol-2-yl)thio)acetohydrazide]	30.8	18.3	75.7	more than 50%	68.3	963 ± 33	146.1 to 147.9
COc1ccc2sc(SCC(=O)NN=Cc3ccc(C)o3)nc2c1 [Compound 3g, 2-((5-Methoxybenzothiazol-2-yl)thio)-N′-((5-methylfuran-2-yl)methylene)acetohydrazide]	16.7	11.1	18.2		11.2		145.3 to 146.7
COc1ccc2sc(SCC(=O)NN=Cc3ccc([N+](=O)[O-])o3)nc2c1 [Compound 3h, 2-((5-Methoxybenzothiazol-2-yl)thio)-N′-((5-nitrofuran-2-yl)methylene)acetohydrazide]	25.9	21.3	82.6	more than 50%	79.1	75 ± 3	168.9 to 170.7
COc1ccc2sc(SCC(=O)NN=Cc3cccnc3)nc2c1 [Compound 3i, 2-((5-Methoxybenzothiazol-2-yl)thio)-N′-(pyridin-3-ylmethylene)acetohydrazide]	19.9	10.6	32		28.8		177.5 to 179.3
COc1ccc2sc(SCC(=O)NN=Cc3ccncc3)nc2c1 [Compound 3j, 2-((5-Methoxybenzothiazol-2-yl)thio)-N′-(pyridin-4-ylmethylene)acetohydrazide]	22.1	17.3	34.6		30.5		159.8 to 161.4
O=C(NCCN1CCOCC1)c1ccc(Cl)cc1 [Moclobemide, reference compound]	91.4 ± 4.6	77.9 ± 3.71					
